{"source": "ChEMBL document CHEMBL4715874", "about": "“In Vivo Screening of Xanthones from Garcinia oligantha Identified Oliganthin H as a Novel Natural Inhibitor of Convulsions” (J Nat Prod, 2020)", "key": {"[1]": {"experiment": "Toxicity in AB zebra fish larvae assessed as mortality at >= 25 uM after 6 hrs", "design": "species or system Danio rerio", "conditions": "zebrafish"}, "[2]": {"experiment": "Neurotoxicity in AB zebra fish larvae at 25 uM after 6 hrs", "type": "toxicity, Danio rerio", "conditions": "zebrafish"}, "[3]": {"experiment": "Toxicity in AB zebra fish larvae assessed as maximum tolerated concentration after 6 hrs", "design": "species or system Danio rerio", "conditions": "zebrafish, read-out: MTC"}, "[4]": {"experiment": "Neurotoxicity in AB zebra fish larvae assessed as decrease in total swimming distance at <= MTC after 6 hrs", "type": "toxicity, Danio rerio", "conditions": "zebrafish"}, "[5]": {"experiment": "Neurotoxicity in AB zebra fish larvae assessed as increase in total swimming distance at > 12.5 uM after 6 hrs", "type": "toxicity, Danio rerio", "conditions": "zebrafish"}, "Danio rerio [6]": {"species": "Danio rerio", "experiment": "Anticonvulsant activity in AB zebra fish larvae assessed as reduction in PTZ-induced convulsant behavior by measuring swimming distance at 3.1 to 12.5 uM pretreated for 6 hrs followed by PTZ-stimulation and measured every 5 mins for 1 hr", "type": "functional, organism-based", "conditions": "dose 3.1-12.5 µM, time 7.0 hrs"}, "Danio rerio [7]": {"species": "Danio rerio", "experiment": "Anticonvulsant activity in AB zebra fish larvae assessed as reduction in PTZ-induced convulsant behavior by measuring lowest observed effect concentration pretreated for 6 hrs followed by PTZ-stimulation and measured every 5 mins for 1 hr", "type": "functional", "conditions": "time 7 hrs"}, "[8]": {"experiment": "Ratio of MTC for toxicity in AB zebra fish larvae to lowest observed effect concentration for Anticonvulsant activity in AB zebra fish larvae assessed as reduction in PTZ-induced convulsant behavior", "design": "species or system Danio rerio"}}, "note": "The source made the active and inactive calls. No cut-off for these calls is given here.", "data": [{"smiles": "CC(C)=CCC1(CC=C(C)C)C(=O)C(O)=C(O)c2oc3c4c(cc(O)c3c(=O)c21)OC(C)(C)C=C4", "values": [{"measurement": "Activity", "setting": "[1]", "value": "Toxic"}, {"measurement": "Activity", "setting": "[2]", "value": "Toxic"}, {"measurement": "MNTC at 6 h", "setting": "[3]", "value": 12.5, "unit": "µM"}, {"measurement": "Activity", "setting": "[4]", "value": "Non-Toxic"}, {"measurement": "Activity", "setting": "[5]", "value": "Toxic"}, {"measurement": "Activity", "setting": "Danio rerio [6]", "value": "inactive"}, {"measurement": "Activity", "setting": "Danio rerio [7]", "value": ">12.5", "unit": "µM"}, {"measurement": "Ratio", "setting": "[8]", "value": "<1"}]}]}
